Our source for the GI50 and TGI values is PubChem BioAssay (NCI).

Values joined by “and” are separate entries in the source; they are usually repeats but may differ in a detail not shown here. Equal entries are not always repeated.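 In this assay, cells in 96-well plates receive the compound at five concentrations for 48 hours. Endpoints are linearly interpolated between the surrounding concentrations. Here, GI50 denotes the concentration required for 50% inhibition of growth. TGI denotes the concentration required for complete inhibition of growth.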

Holding throughout (assay): NCI-60 cell line screen, 48 h
Test [1] deals with T-47D breast.
Test [2] deals with MOLT-4 leukemia.
In test [3] the test system is UACC-257 melanoma.
Test [4] concerns HS 578T breast.
The test system of test [5] is MDA-MB-231 breast.
For test [6], the system named is A549 NSCLC.
The test system of test [7] is OVCAR-4 ovarian.
Test [8] deals with LOX IMVI melanoma.
Test [9] relates to K-562 leukemia.
Test [10] has as its system HCC-2998 colon.

On to `Cc1cn2c(/C=N/N=C(N)N)c(-c3cccnc3)nc2s1`, for which the GI50 in test [1] is 1.94 µM; in [2], 3.66 µM; in [3] it was 16.5 µM; in [4], 23.5 µM; in [5] it was 10.1 µM; in test [6] it was 16.3 µM. Moreover, the results for the GI50 in [7] and in test [8] were 15.7 µM and 12.9 µM, respectively. In addition, the TGI in test [1] came to 12.1 µM; in test [2] it was 38.6 µM; in test [3], 35.4 µM; in test [4], 47.1 µM; in test [5], 24.2 µM; in [6], 56.1 µM. Further, the values for the TGI in [7] and in test [8] were 29.6 µM and 28.7 µM, respectively.
Regarding `O=C(NC1C2CC3CC(C2)CC1C3)c1cc(/C=C/c2ccccc2)[nH]c(=S)n1` (stereo not given), the TGI in test [2], in [9], in test [3], in [10], in test [6] and in [7] was greater than 100 µM each time. In [8], this compound showed a TGI greater than 100 µM.
On to `COc1ccc2oc(C(=O)O)c3c2c1CCC3`, for which the TGI in test [2], in [9], in test [3], in test [10], in test [6] and in [7] was greater than 100 µM each time. Further, in test [8], the TGI is greater than 100 µM.
In the case of `O=S(O)CCCSSc1ccccc1`, the TGI in test [2] is 70.2 µM; in test [9], greater than 100 µM; in [3], greater than 100 µM; in test [10], greater than 100 µM; in test [6], greater than 100 µM; in [7] it was greater than 100 µM. Besides, the TGI in test [8] was greater than 100 µM.
For `CC1=C[P+](Cc2ccccc2)(c2ccccc2)CC1` (stereo not given), the TGI in test [2] is greater than 100 µM; in test [9], greater than 100 µM; in test [3], > 100 µM and 78 µM; in test [10], greater than 100 µM; in test [6], greater than 100 µM; in test [7], greater than 100 µM. Besides, in test [8], the TGI was greater than 100 µM. In addition, the GI50 in test [10] is 97.7 µM and > 100 µM and 39.3 µM.
As to `O=C1CC(O)(c2ccccc2)C(c2ccccc2)=C1c1ccccc1` (stereo not given), the TGI is 81.5 µM in [2]; greater than 100 µM in test [9]; greater than 100 µM in test [3]; greater than 100 µM in [10]; greater than 100 µM in test [6]; greater than 100 µM in [7]. The compound also registered a TGI in [8] greater than 100 µM.
As to `CCOc1ccccc1NC(=O)CCc1n[nH]c(=S)o1`, the TGI in test [2], in [9], in [3], in test [6] and in [8] was greater than 100 µM throughout.
Regarding `O=C1c2ccccc2C(=O)N1C/C=C/CO`, the TGI in test [2], in test [9], in test [3], in test [10], in test [6] and in test [7] was greater than 100 µM in each case.
Consider `CCC[CH2][Sn]1([CH2]CCC)[O]C(=O)c2ccc(C)cc2[O]1`, for which the GI50 in test [2] is 0.222 µM; in test [9] it was 0.247 µM; in [3], 0.316 µM; in test [10], 1.14 µM; in test [6], 1.57 µM; in test [7] it was 1.11 µM. In test [8], the GI50 is 0.184 µM. Further, the TGI in [2] worked out at 0.621 µM; in test [9] it was 0.846 µM; in [3] it was 1.49 µM; in [10], 2.38 µM; in [6] it was 2.97 µM; in test [7], 2.43 µM. In [8], this compound registered a TGI of 0.357 µM.
Take `COc1cc2c(cc1OC)C(=O)Cc1ccc(OC)c(OC)c1CN(C)CC2`: the TGI in test [2], in test [9], in test [3], in [10], in test [6] and in [7] was greater than 100 µM each time. For the same compound, the TGI in test [8] is greater than 100 µM.
As for `Clc1cc2n[se]nc2cc1Cl`, the TGI in [2], in test [9], in test [3], in test [10], in [6] and in [7] was greater than 100 µM throughout. In test [8], the TGI was greater than 100 µM.
For the compound `CC[C@@H]1C[C@H]2CC3c4[nH]c5ccc(O)cc5c4CCN(C2)C31`, the TGI in [2], in [9], in test [3], in [10], in [6] and in test [8] was greater than 100 µM each time.
Regarding `CCOC(=O)/C(=C(/C)NCC(C)C)c1cc(O)c(O)c2c(C)cc(=O)[nH]c12`, the GI50 in test [1] is 5.09 µM; in test [2], 3.8 µM; in test [9] it was 6.8 µM; in test [3], 14.3 µM; in test [4], 13.4 µM; in test [5], 4 µM. Moreover, the GI50 is 7.8 µM in test [6], 2.62 µM in test [7] and 5.78 µM in test [8]. Moreover, the TGI was greater than 100 µM in test [1]; greater than 100 µM in test [2]; greater than 100 µM in test [9]; greater than 100 µM in [3]; 57.3 µM in test [4]; 94.1 µM in test [5]. The values for the TGI in test [6], in [7] and in test [8] were greater than 100 µM, 50 µM and greater than 100 µM, respectively.
With `CC(=O)C1(N=Nc2ccc(S(N)(=O)=O)cc2)CCOC1=O` (stereo not given), the TGI in test [1], in [3], in test [4], in [5], in test [6] and in test [7] was greater than 100 µM in each case. The compound also returned a TGI in test [8] greater than 100 µM.
Consider `CCOC(=O)[C@@H](C)C[C@H](Cc1ccccc1)NC(=O)c1csc([C@@H](C[C@H](C(C)C)N(C)C(=O)[C@H](CC)NC(=O)[C@H]2CCCCN2C)OC(C)=O)n1`, for which the GI50 in [2] was 0.00896 µM; in test [9], less than 0.00167 µM; in [3], greater than 16.7 µM; in test [4], 0.00405 µM; in test [5] it was 0.00323 µM; in test [10], 0.00267 µM. The GI50 in test [6] was 0.00415 µM; in test [7], 0.00397 µM; in test [8], 0.00842 µM. Besides, the TGI was greater than 16.7 µM in test [2]; greater than 16.7 µM in test [9]; greater than 16.7 µM in [3]; greater than 15.5 µM in test [4]; 0.308 µM in [5]; greater than 5.64 µM in [10]. Moreover, the TGI in test [6], in [7] and in [8] was greater than 16.7 µM each time.
Consider `Fc1cccc2c1cc1ccc3cccc4ccc2c1c34`, for which the TGI in test [2], in test [9], in test [3], in test [10], in test [6] and in [7] was greater than 100 µM in each case. Also, the TGI in test [8] is greater than 100 µM.
Regarding `C[n+]1ccc(-c2c3nc(c(-c4cc[n+](C)cc4)c4ccc([n-]4)c(-c4cc[n+](C)cc4)c4nc(c(-c5cc[n+](C)cc5)c5ccc2[n-]5)C=C4)C=C3)cc1.[I-].[Zn+2]`, the GI50 in test [2] is 28.4 µM; in [9], 23 µM; in test [3] it was 9.61 µM; in test [10] it was 49.6 µM; in test [6] it was 22.3 µM; in test [7], 2.43 µM. Besides, the GI50 in test [8] was 82.9 µM. For the same compound, the TGI in [2] is greater than 100 µM; in test [9], 59.8 µM; in [3], 30.1 µM; in [10], greater than 100 µM; in test [6], 49.5 µM; in test [7], 10.4 µM. Also, the TGI in [8] is greater than 100 µM.
Consider `OCC1OC(n2cnc3c(Cl)nc(Cl)cc32)C(O)C1O` (stereo not given), for which the GI50 in test [1] was greater than 100 µM; in [2], greater than 100 µM; in test [9], greater than 100 µM; in test [4], 19.7 µM; in test [10], greater than 100 µM; in test [6] it was greater than 100 µM. Also, the TGI in [1], in [2], in test [9], in test [4], in test [10] and in [6] was greater than 100 µM in each case.
In the case of `OC1C2CCC1C1C3C=CC(C3)C21` (stereo not given), the TGI in test [2], in test [9], in test [3], in [6], in test [7] and in test [8] was greater than 100 µM each time.
As for `C=C(C)[C@@H]1CC[C@]2(CO)CC[C@]3(C)[C@H](CC[C@@H]4[C@@]5(C)CCC(NCCc6ccc(O)cc6)C(C)(C)[C@@H]5CC[C@]43C)[C@@H]12` (stereo not given in full), the GI50 in test [1] is 1.51 µM; in [2], 1.38 µM; in test [9], 0.31 µM; in test [3] it was 1.73 µM; in test [5] it was 1.64 µM; in [10], 0.97 µM. Further, the GI50 is 1.48 µM in [6], 1.7 µM in test [7] and 0.783 µM in test [8]. In addition, the TGI in test [1] was 3.19 µM; in test [2], 3.38 µM; in [9], 1.66 µM; in test [3], 3.37 µM; in [5], 3.09 µM; in test [10], 2.23 µM. Moreover, the figures for the TGI in test [6], in test [7] and in test [8] were 3 µM, 3.18 µM and 2.09 µM, respectively.
`c1ccc2c(c1)[nH]c1c2nc2ncccn21`: the TGI in test [2], in test [9], in test [3], in test [10], in test [6] and in [7] was greater than 100 µM each time.
As for `CC1OC(OC2C(CO)OC(O[C@H]3CC[C@@]4(C)C(=CC[C@H]5[C@@H]6C[C@@H]7O[C@]8(CC[C@@H](C)CN8)[C@@H](C)[C@@H]7[C@@]6(C)CC[C@@H]54)C3)C(O)C2O)C(O)C(O)C1O` (stereo not given in full), the TGI in [2], in test [9], in test [3], in test [6], in test [7] and in test [8] was greater than 100 µM in each case.
As to `O=C(NCC(O)CNC(=O)C(F)(F)F)C(F)(F)F`, the TGI in test [2], in test [9], in [3], in [10], in test [6] and in test [7] was greater than 100 µM in each case. In test [8], this compound came in with a TGI greater than 100 µM.
Regarding `CC(C)(C)OC(=O)NC(CO)c1cccc(OCc2ccccc2)c1` (stereo not given), the TGI in test [2] was greater than 100 µM; in test [9], greater than 100 µM; in test [3], 99.4 µM; in test [10] it was greater than 100 µM; in test [6], greater than 100 µM; in [7] it was greater than 100 µM. The compound further came in with a TGI in [8] greater than 100 µM.
On to `N#C/C(=C/Sc1ccccc1)C(=O)O`, for which the TGI in [2] was greater than 100 µM; in test [9] it was greater than 100 µM; in test [3], greater than 100 µM; in test [6], greater than 100 µM; in [7] it was greater than 100 µM; in test [8], 24.5 µM.
With `COc1ccc2nc3ccccc3c(NCCCN(C)CCCl)c2c1`, the TGI in [1] was found to be 0.467 µM; in [2] it was 0.888 µM; in test [9] it was 2.59 µM; in [3], 2.24 µM; in test [4], 3.85 µM; in [10], 1.69 µM. In addition, the TGI in test [6] was determined as 2.42 µM; in test [7] it was 2.07 µM; in test [8], 1.16 µM.
As for `O=c1oc(=O)c2oc3ccccc3oc1=2`, the TGI in [2], in test [9], in test [3], in test [10], in [6] and in test [7] was greater than 100 µM each time. Also, the TGI in [8] was greater than 100 µM.
For the compound `CC1(C)CCC(C)(C)c2c1ccc(O)c2Cc1c(O)ccc2c1C(C)(C)CCC2(C)C`, the TGI in [1] was determined as 3.8 µM; in [2], 4.71 µM; in test [9], 5.41 µM; in [3], 3.45 µM; in test [4] it was 8.85 µM; in test [5] it was 3.22 µM. Besides, the results for the TGI in test [6], in test [7] and in test [8] were 5.57 µM, 3.53 µM and 3.39 µM, respectively.
Turning to `NCCN1C(=O)C2C3c4ccccc4C(c4ccccc43)C2C1=O` (stereo not given), the TGI in test [2], in test [9], in [3], in [10], in [6] and in test [7] was greater than 100 µM in each case.
